Reference: PubChem BioAssay (NCI)
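Step 1: Grow cells in 96-well plates. Step 2: Expose to compound for 48 hours at 5 concentrations. Step 3: Interpolate endpoints linearly; if unreached, use highest concentration. GI50 is the concentration that inhibits growth by half. The concentration for full growth arrest is given as TGI.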

Columns and labels:
Experiment in all cases: NCI-60 cell line screen, 48 h
SN12C renal = system: SN12C renal
OVCAR-5 ovarian = system: OVCAR-5 ovarian
NCI-H23 lung = system: NCI-H23 lung
MCF7 breast = system: MCF7 breast
OVCAR-3 ovarian = system: OVCAR-3 ovarian
SK-MEL-2 melanoma = system: SK-MEL-2 melanoma
SF-268 CNS = system: SF-268 CNS
HCT-15 colon = system: HCT-15 colon
IGROV1 ovarian = system: IGROV1 ovarian
MDA-MB-435 = system: MDA-MB-435

Structure (SMILES)	TGI (SN12C renal) [µM]	TGI (OVCAR-5 ovarian) [µM]	TGI (NCI-H23 lung) [µM]	TGI (MCF7 breast) [µM]	TGI (OVCAR-3 ovarian) [µM]	TGI (SK-MEL-2 melanoma) [µM]	TGI (SF-268 CNS) [µM]	TGI (HCT-15 colon) [µM]	TGI (IGROV1 ovarian) [µM]	TGI (MDA-MB-435) [µM]	GI50 (SN12C renal) [nM]	GI50 (OVCAR-5 ovarian) [nM]	GI50 (NCI-H23 lung) [nM]	GI50 (MCF7 breast) [nM]	GI50 (OVCAR-3 ovarian) [nM]	GI50 (SK-MEL-2 melanoma) [nM]	GI50 (SF-268 CNS) [nM]	GI50 (HCT-15 colon) [nM]	GI50 (IGROV1 ovarian) [nM]	GI50 (MDA-MB-435) [nM]
CS(=O)(=O)OC1CN2CCC1CC2 (configuration not stated)	> 100	> 100	> 100	> 100	> 100	> 100	> 100	> 100	> 100	> 100	–	–	–	–	–	–	–	–	–	–
Cc1ccc(NP(=O)(Oc2ccccc2)N(CCCl)CCCl)cc1 (configuration not stated)	> 100	> 100	> 100	–	> 100	> 100	> 100	> 100	> 100	–	–	–	–	–	–	–	–	–	–	–
C=CCc1cc(-c2cc(CC=C)c(O)c(CNC)c2)cc(CNC)c1O	31.3	–	29.6	–	27.9	32.9	33.3	30.2	32.7	–	–	–	–	–	–	–	–	–	–	–
O=C1N(c2ccccc2)C2(c3ccccc3)CC3CCCC13S2 (configuration not stated)	> 100	> 100	> 100	> 100	> 100	80.9	> 100	> 100	> 100	> 100	–	–	–	–	–	–	–	–	–	–
CCN(CC)CCCC(C)Nc1ccnc2cc3ccccc3cc12 (configuration not stated)	> 100	> 100	96.7	39	> 100	52.4	22.1	14.4	50.7	24.2	–	–	–	–	–	–	–	–	–	–
O=C(O)c1cc(=O)[nH]c(SCc2ccccc2)n1	> 100	> 100	> 100	–	> 100	> 100	> 100	> 100	> 100	> 100	–	–	–	–	–	–	–	–	–	–
CSc1nc(NC2OCC(OC(C)=O)C(OC(C)=O)C2OC(C)=O)c(N=C(C)C(C)=O)c(=O)[nH]1 (configuration not stated)	> 100	> 100	> 100	–	–	> 100	> 100	> 100	> 100	–	–	–	–	–	–	–	–	–	–	–
COc1ccc(C2CC(c3cccc(Nc4ccncc4)c3)=NN2c2ccc(Cl)cc2)cc1 (configuration not stated)	3.07	3.68	3.43	3.63	3.15	4.28	3.43	3.58	3.28	3.05	1600	1760	1810	1830	1670	2070	1720	1880	1680	1630
CCCCCCCCCCCCCCCc1ccc(OCC(O)CO)cc1 (configuration not stated)	33.2	> 100	35.2	–	49.3	42.7	82.4	> 100	> 100	–	–	–	–	–	–	–	–	–	–	–
CCN1C=C/C(=C\C=C/c2cc[n+](CC)c3ccccc23)c2ccccc21	12.3	15.1	11.7	20	6.81	21.2	19.6	34.1	12.4	14.2	–	–	–	–	–	–	–	–	–	–
Cc1cccc2cc3c(ccc4ccccc43)c[n+]12	20.3	> 100	58	> 100	16.9	48.3	14.2	> 100	> 100	> 100	–	–	–	–	–	–	–	–	–	–
Nc1cc2c(nnn2C2OC(COCc3ccccc3)C(OCc3ccccc3)C2OCc2ccccc2)c(=O)[nH]1 (configuration not stated)	40.3	> 100	> 100	83.9	> 100	28.3	> 100	> 100	> 100	40.4	–	–	–	–	–	–	–	–	–	–
O=C(C[C@H](NC(=O)OCc1ccccc1)C(=O)NC1Cc2ccccc2OC1=O)OCc1ccccc1 (some centres not stated)	> 100	> 100	> 100	80.6	> 100	> 100	–	> 100	> 100	> 100	–	–	–	–	–	–	–	–	–	–
O=S1(=O)C(c2ccccc2)C(N2CCCCC2)C1C1CC2c3ccccc3C1c1ccccc12 (configuration not stated)	> 100	> 100	> 100	> 100	> 100	> 100	> 100	> 100	> 100	> 100	–	–	–	–	–	–	–	–	–	–
O=C(C=P(c1ccccc1)(c1ccccc1)c1ccccc1)c1cccc(-c2cccc([N+](=O)[O-])c2)c1	> 100	> 100	26.4	> 100	> 100	–	> 100	21.1	38.4	–	–	–	–	–	–	–	–	–	–	–
O=Cc1cc([N+](=O)[O-])no1	> 100	> 100	> 100	86.9	> 100	57.4	–	> 100	> 100	29.9	–	–	–	–	–	–	–	–	–	–
CC(C)(C)OC(=O)NCC(=O)NC1c2ccsc2/C(=N/O)[C@H]1O (some centres not stated)	> 100	> 100	> 100	> 100	> 100	> 100	–	> 100	> 100	> 100	–	–	–	–	–	–	–	–	–	–
CCOC(=O)C[C@@H]1C2(C=C[C@@]13CO3)OCC(C)(C)CO2	> 100	> 100	> 100	> 100	> 100	> 100	> 100	> 100	> 100	> 100	–	–	–	–	–	–	–	–	–	–
C#CCn1ncc2c(SC)ncnc21	> 100	> 100	> 100	> 100	> 100	> 100	> 100	> 100	> 100	> 100	–	–	–	–	–	–	–	–	–	–
Nc1ccc(-c2cssc2=S)cc1	94.6	> 100	–	> 100	–	77	> 100	> 100	> 100	> 100	–	–	–	–	–	–	–	–	–	–
CCCCCCNC(=O)c1cc(CCc2cc(O)ccc2O)ccc1O	5.77	19.3	28.5	12.4	5.94	7.4	9.9	12.8	5.66	19.6	2180	–	–	–	–	–	–	–	–	–
CC(=O)Nc1ccc(N=C2C(c3ccccc3)=C(SC3=C(c4ccccc4)C(=Nc4ccc(NC(C)=O)cc4)c4ccccc43)c3ccccc32)cc1	> 100	> 100	99.8	> 100	> 100	> 100	> 100	> 100	> 100	> 100	–	–	–	–	–	–	–	–	–	–
CO/C=C(/C(=O)OC)c1ccccc1[C@@H]1CC1c1cccc(F)c1 (some centres not stated)	98.4	> 100	> 100	> 100	> 100	37.4	> 100	78.1	62.8	44	–	–	–	–	–	–	–	–	–	–
O=c1cc(-c2ccc(O)cc2)n(C2CC2)c2ccccc12	32.3	19.4	26.6	35.5	16.8	8.2	24.5	16.8	> 100	17.5	–	–	–	–	–	–	–	–	–	–
O=C1CS(=O)(=O)C(c2cccc(Oc3ccccc3)c2)N1c1cccc(Cl)c1 (configuration not stated)	> 100	> 100	> 100	32.4	95.1	33.2	76.7	> 100	69.9	65.8	–	–	–	–	–	–	–	–	–	–
c1ccc(C2CC(c3cccc(Nc4ccncc4)c3)=NN2c2ccccc2)cc1 (configuration not stated)	3.06	3.65	3.35	3.29	3.54	3.46	3.65	3.18	3.18	3.2	1650	1830	1730	1610	1800	1870	1790	1590	1680	1690
N#Cc1c(NC(=S)Nc2ccc(Cl)cc2)sc2c1CCCC2	50.4	> 100	> 100	> 100	> 100	> 100	> 100	> 100	> 100	> 100	–	–	–	–	–	–	–	–	–	–
Cc1cc2c(cc1Cl)SC(c1ccccc1)C(=O)NS2(=O)=O (configuration not stated)	–	> 100	56.2	> 100	53.4	32.9	> 100	64	> 100	> 100	–	–	–	–	–	–	–	–	–	–
CC(=O)Oc1c(C)c2c(O)c3c1C1=C(OCOC1=C(C)C3=O)/C(C)=C\C(C)(O)C(O)C(C)C(O)C1C(=O)OC(C(C)C1O)C(C)(O)/C=C/C=C(C)C(=O)N2 (configuration not stated)	> 100	88.5	> 100	> 100	> 100	> 100	> 100	> 100	52.7	> 100	–	–	–	–	–	–	–	–	–	–
Cc1nc2c(n1C)C(=O)c1nc(CBr)[nH]c(=O)c1C2=O	> 100	–	> 100	–	–	–	> 100	> 100	> 100	–	–	–	–	–	–	–	–	–	–	–
